Measurements taken from US20110160223A1, “NMDA Receptor Antagonists for the Treatment of Neuropsychiatric Disorders” (priority 2008, published 2011).
Like-named read-outs stand apart in the source and are kept apart here. Each block holds one compound with its values, some of them ahead of it.

Legend:
[1] = tested on: Salmonella typhimurium TA98, TA102; assay: Ames test for genotoxicity; conditions: 8 conc., 1.5-5000 μg/plate; +/− S9 both; strains TA98, TA102
Procedure: The Ames test determines the ability of a compound to reverse an introduced mutation in two strains of Salmonella typhimurium (selected from TA98, TA100, TA15345, TA1537, and TA102). (See for example Maron, D. M. and Ames, B. N., Mutat. Res., 1983, 113, 173-215.) Compounds were tested at eight dose levels 1.5, 5, 15, 50, 150, 500, 1500, and 5000 μg/plate in both the presence and absence of S-9 microsomal fraction in two bacterial strains (TA98, TA102). After incubation at 37° the number of revertant colonies was compared with the number of spontaneous revertants on negative (vehicle) plates. Positive control plates containing a known mutagen active in each of the strains in the presence of S-9 extract (2-aminoanthracene at 1-5 ug/plate) were also run.

[2] = tested on: CD1 mice; assay: Forced swim model (depression result); type: in vivo; conditions: i.p.
Procedure: CD1 mice were adminstered a compounds shown in Table 11, desipramine, Ro 25-6981 or a control vehicle and subjected to a forced swim test. All compounds were administered as intraperitoneal injections. Animals were placed into a beaker (15 cm diameter) of water held at 25° C. with a depth of 15 cm 30 min after compound administration. Behavior was videotaped for 6 minutes from the side of the beaker and scored subsequently for struggling behavior. Results were analyzed by one-way ANOVA and post-hoc Bonferroni tests. Total immobility time refers to the time that the animal spends floating or engaged in minimal activity to keep afloat for at least 3 seconds. Subtle movements of feet, tail or head required to maintain the eyes, ears, and nose above the surface of the water were excluded as immobility. The video-tapes were scored by investigators unfamiliar with the treatments of the mice.
For the data in FIG. 1, test compounds were tested at a dose of 10 mg/ kg. Desipramine was tested at a dose of 20 mg/kg. Ro 25-6981 was tested at a dose of 5 mg/kg. Number of CD1 mice tested per groups was 8-10. ANOVA: F(11,98)=3.638, p<0.01. *=p<0.05 compared to vehicle. +=p<0.05 compared to desipramine.
For the data in FIG. 2, compounds NP10075 and NP10076 were tested at doses of 5 mg/kg, 7.5 mg/kg and 10 mg/kg; desipramine was tested at a dose of 20 mg/kg; and Ro 25-6981 was tested at a dose of 5 mg/kg. Number of CD1 mice tested per group was 8-10. *=p<0.05, **=p<0.01 ANOVA, post-hoc Bonferroni from control.

[3] = molecular target: NMDA receptor (NR1 + NR2 subunits) (Rattus norvegicus, UniProt P35439+Q00960); assay: Two electrode voltage clamp recording from Xenopus laevis oocytes (pH dependence of NMDA antagonism); type: cell-based; conditions: Table 27; pH not stated; read-out: Rat IC50
NMDA receptor (NR1 + NR2 subunits), sequence (Q00960 27-1482, other chains not shown): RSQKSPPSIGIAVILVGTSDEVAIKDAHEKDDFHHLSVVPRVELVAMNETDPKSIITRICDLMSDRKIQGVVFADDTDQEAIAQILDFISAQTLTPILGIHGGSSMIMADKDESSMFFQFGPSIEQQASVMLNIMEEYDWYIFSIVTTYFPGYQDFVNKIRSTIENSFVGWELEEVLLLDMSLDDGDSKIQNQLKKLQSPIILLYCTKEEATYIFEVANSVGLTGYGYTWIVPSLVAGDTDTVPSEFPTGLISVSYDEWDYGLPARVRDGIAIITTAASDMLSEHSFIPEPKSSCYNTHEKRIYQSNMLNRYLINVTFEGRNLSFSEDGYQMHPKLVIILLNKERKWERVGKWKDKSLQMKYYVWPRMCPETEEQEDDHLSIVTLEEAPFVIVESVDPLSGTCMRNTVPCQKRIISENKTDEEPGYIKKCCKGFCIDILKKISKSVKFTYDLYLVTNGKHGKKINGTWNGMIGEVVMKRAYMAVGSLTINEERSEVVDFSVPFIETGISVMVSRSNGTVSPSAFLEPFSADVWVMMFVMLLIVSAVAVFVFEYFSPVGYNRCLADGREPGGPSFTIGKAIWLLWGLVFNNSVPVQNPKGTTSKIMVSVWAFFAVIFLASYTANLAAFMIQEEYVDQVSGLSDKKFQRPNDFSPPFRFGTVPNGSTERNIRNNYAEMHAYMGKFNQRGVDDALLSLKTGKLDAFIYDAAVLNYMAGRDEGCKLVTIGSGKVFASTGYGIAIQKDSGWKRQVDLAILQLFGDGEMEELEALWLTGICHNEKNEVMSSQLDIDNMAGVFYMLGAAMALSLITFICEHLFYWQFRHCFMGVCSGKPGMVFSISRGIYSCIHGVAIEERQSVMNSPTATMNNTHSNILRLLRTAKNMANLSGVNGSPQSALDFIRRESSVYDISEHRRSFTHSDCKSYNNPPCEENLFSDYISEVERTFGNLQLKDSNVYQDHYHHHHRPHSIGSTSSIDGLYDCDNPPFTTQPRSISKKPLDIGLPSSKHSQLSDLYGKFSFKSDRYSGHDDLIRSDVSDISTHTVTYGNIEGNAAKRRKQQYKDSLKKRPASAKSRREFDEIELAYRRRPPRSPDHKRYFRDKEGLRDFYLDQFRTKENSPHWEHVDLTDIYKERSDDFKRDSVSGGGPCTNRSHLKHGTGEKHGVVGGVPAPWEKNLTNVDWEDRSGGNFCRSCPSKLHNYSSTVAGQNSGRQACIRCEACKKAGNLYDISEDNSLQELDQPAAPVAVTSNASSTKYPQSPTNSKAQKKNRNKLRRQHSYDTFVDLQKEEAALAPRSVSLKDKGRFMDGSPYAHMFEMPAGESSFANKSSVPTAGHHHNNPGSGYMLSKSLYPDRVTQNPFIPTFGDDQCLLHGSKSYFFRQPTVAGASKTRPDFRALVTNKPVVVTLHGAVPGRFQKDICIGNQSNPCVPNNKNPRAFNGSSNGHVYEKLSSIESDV
Method in brief: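 Oocytes expressing rat NR1/NR2 were held at −40 mV at 23 °C, 2–7 days after injection, in Ba²⁺ saline with pH adjusted and 10 µM EDTA. Compounds at 4–8 concentrations were co-applied with 50 µM glutamate and 30 µM glycine. Percent of the initial response was leak-corrected, pooled over 3–6 frogs and fitted with a Hill equation (minimum ≥0) to give IC50.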

[4] = Plasma and brain exposure assessment; type: in vivo, Mice; conditions: mouse, ip; for concentration at 30 min: calculated from the brain:plasma ratio determined by LC-MS/MS
Procedure: Mice were administered a dose of test compound (10 mg/kg by i.p.) and blood and brain tissue samples collected at the indicated times post drug administration (n=3-5). Blood samples were collected in K-EDTA tubes and centrifuged for ten minutes immediately after collection, and the plasma was stored at −80° C. until analysis. Brains were immediately removed from the skull and the meninges and cerebellum removed, rinsed with ice-cold PBS, weighed and then homogenized at 4° C. in 2-3 volumes of 50 mM potassium phosphate buffer (pH 7.4) and stored at −80° C. until analysis. Plasma and brain homogenates were extracted by the addition of 5 volumes of cold acetonitrile, mixed well by vortexing and centrifuged at 4000 rpm for 15 minutes. The supernatant fractions were analyzed by LC-MS/MS operating in multiple reaction monitoring mode (MRM) and analyzed for the parent compound to determine the plasma or brain concentration. Internal standards were added to calibrate each sample. An eight point standard curve was prepared similarly in naïve plasma and brain for each compound of interest. Based on occupancy studies of other NR2B antagonists in rodents (CP-101,606, Ro25-6981, and Merck20j), plus plasma levels achieved in Preskorn et al., brain exposures for the test compounds were consistent with “anticipated levels” required for efficacy.

[5] = tested on: mice; assay: Open field activity test; type: in vivo; conditions: 10 mg/kg, intraperitoneal
Procedure: Spontaneous activity was evaluated in an automated Omnitech Digiscan apparatus (AccuScan Instruments, Columbus, Ohio). Animals were given vehicle, imipramine, or a dose of a test compound. All compounds were administered as intraperitoneal injections. Activity was summated at 5 minute intervals over the 90 min period of testing. At 60 minutes, the mice were injected with 10 mg/kg NP10075, 10 mg/kg NP10076 or a vehicle. Locomotion was measured in terms of the total distance traveled (horizontal activity). Results were analyzed by one-way ANOVA and post-hoc Bonferroni tests.

[6] = tested on: MDR1-MDCK cell monolayers that express the multidrug transporter P-gp; assay: In vitro cell permeability assay to predict brain penetration potential; type: in vitro ADME; set-up: key: High: when Papp A−B≧3.0×10−6 cm/s, and efflux<3.0; Moderate: when Papp A−B≧3.0×10−6 cm/s, and 10>efflux≧3.0; Low: when either Papp A−B≧3.0×10−6 cm/s, and efflux≧10, or when Papp A−B<3.0×10−6 cm/s; conditions: 5 μM, pH 7.4, 2 hr, from Papp A-B and efflux ratio
Procedure: Penetration Classification (Table 24) using the in vitro cell permeability assay to predict bran penetration potential: Transwell® wells containing MDR1-MDCK cell monolayers that express the multidrug transporter P-gp were used for measuring the percent recovery of compound after dosing both sides of a cell monolayer with the test article. Monolayers were grown for 7-11 days at which time 5 μM of the test article was made by dilution from DMSO stocks into a Hank's balanced salt solution (pH 7.4), final DMSO not greater than 1%, and added to: a) the apical side for A-B permeability (apical to basal) assessment, or separately b) the basal side for the B-A permeability (basal to apical) assessment, all at pH 7.4. After a 2 hr incubation (37° C.) both the apical and the basal compartments were sampled and the amount of test article present determined by generic LC-MS/MS methods against a ≧4 point calibration curve. Experiments were done in duplicate. Apparent permeability (Papp units are reported×10−6 cm/s) are determined for the A−B and the B−A directions as well as the Efflux ratio (PappB−A/Papp A−B). The blood-brain barrier penetration potential is classified as follows: “High” when Papp A−B≧3.0×10−6 cm/s, and efflux<3.0; “Moderate” when Papp A−B≧3.0×10−6 cm/s, and 10>efflux≧3.0; and “Low” when either Papp A−B≧3.0×10−6 cm/s, and efflux≧10, or when Papp A−B<3.0×10−6 cm/s.

[7] = Brain exposure (brain:plasma ratio, Table 24); type: in vivo, Rats; conditions: for Kp at 15 min: 15 m
Procedure: Animals were fasted overnight prior to dose administration and food returned to the animals two hours after dosing. Following IV dosing, blood samples (ca 200 μL) were collected into separate tubes containing anticoagulant (K-EDTA) via the orbital plexus at various times post administration. Plasma samples were prepared immediately after collection by centrifugation for ten minutes using a tabletop centrifuge, and stored at −80° C. Brain tissue was weighed, homogenized on ice in 50 mM phosphate buffer (2 ml per brain) and the homogenate stored at −80° C. Plasma and brain homogenate samples were extracted by the addition of 5 volumes of cold acetonitrile, mixed well by vortexing and centrifuged at 4000 rpm for 15 minutes. The supernatant fractions were analyzed by LC-MS/MS operating in multiple reaction monitoring mode (MRM). The amount of parent compound in each sample was calculated by comparing the response of the analyte in the sample to that of a standard curve.

[8] = plasma (free, unbound), mice 10 mg/kg i.p., 30 minute, based on % free fraction measured in protein binding study, read-out: Free Plasma
[9] = plasma (free, unbound), mice 10 mg/kg i.p., 30 minute, based on % free fraction, read-out: Free Plasma
[10] = plasma, mice dosed 10 mg/kg, i.p., 30 minute time point, LC-MS/MS, read-out: Plasma

Structure (SMILES): CCCCN(CCc1ccc(Cl)c(Cl)c1)CC(O)COc1ccc(NS(C)(=O)=O)cc1 (stereo not drawn) [Compound 93-31]
Genotoxicity (Ames) Result [1]: No positive

Structure (SMILES): O=c1[nH]c2ccc(OC[C@@H](O)CN3CCN(c4ccc(Cl)cc4)CC3)cc2o1 [NP10056]
Genotoxicity (Ames) Result [1]: No positive

Structure (SMILES): NC(=O)Nc1ccc(OC[C@@H](O)CN2CCN(c3ccc(Cl)cc3)CC2)cc1 [NP10075]
mouse open field activity (total distance traveled) [5]: Neither NP10075 or NP10076 altered mouse open field activity | Depression Result [2]: active | IC50 [3]: 0.108 µM | Genotoxicity (Ames) Result [1]: No positive | concentration at 30 min ([4]; mice 10 mg/kg i.p.): 0.13 µM | concentration at 30 minute [4, 8]: 0.22 µg/mL | concentration at 30 minute [4, 9]: 0.542 µM | concentration at 30 minute [4, 10]: 3.14 µg/mL

Structure (SMILES): O=c1[nH]c2ccc(OC[C@@H](O)CN3CCN(c4ccc(Cl)cc4)CC3)cc2[nH]1 [NP10122]
Genotoxicity (Ames) Result [1]: No positive

Structure (SMILES): Nc1ccc(OC[C@@H](O)CN2CCN(c3ccc(Cl)c(Cl)c3)C2=O)cc1 [NP10226]
Genotoxicity (Ames) Result [1]: No positive

Structure (SMILES): Nc1ccc(OC[C@@H](O)CN2CCN(c3ccc(Cl)cc3)CC2)cc1 [NP10231]
Genotoxicity (Ames) Result [1]: No positive

Structure (SMILES): NC(=O)Nc1ccc(OC[C@@H](O)CN2CCN(c3ccc(Cl)cc3)C2=O)cc1 [drawing 805]
BBB Pene Classification [6]: Low | RATIO: Brain:plasma (Direct) ([7]; 1 MPK i.v.): Below Detection limit (~0)

Structure (SMILES): O=C(COc1ccc2[nH]c(=O)oc2c1)N1CCN(c2ccc(Cl)c(Cl)c2)CC1 [drawing 806]
BBB Pene Classification [6]: Moderate (when Papp A−B≧3.0×10−6 cm/s, and 10>efflux≧3.0) | Kp at 15 min ([7]; rat, brain and plasma, ip, 10 mg/kg, 10 MPK i.p., read-out: RATIO: Brain:plasma (Direct)): 0.25 | Kp at 30 min ([7]; rat, brain and plasma, ip, 10 mg/kg, 10 MPK i.p., 30 m, read-out: RATIO: Brain:plasma (Direct)): 0.49 | Kp at 1 h ([7]; rat, brain and plasma, ip, 10 mg/kg, 10 MPK i.p., 1 hr, read-out: RATIO: Brain:plasma (Direct)): 0.3 | Kp at 2 h ([7]; rat, brain and plasma, ip, 10 mg/kg, 10 MPK i.p., 2 hr, read-out: RATIO: Brain:plasma (Direct)): 0.36 | Kp ([7]; rat, brain and plasma, ip, 10 mg/kg, 10 MPK i.p., avg, read-out: RATIO: Brain:plasma (Direct)): 0.33

Structure (SMILES): O=C(COc1ccc2[nH]c(=O)[nH]c2c1)N1CCN(c2ccc(Cl)c(Cl)c2)CC1 [drawing 807]
BBB Pene Classification [6]: Moderate (when Papp A−B≧3.0×10−6 cm/s, and 10>efflux≧3.0) | Kp at 15 min ([7]; rat, brain and plasma, iv, 1 mg/kg i.v., read-out: RATIO: Brain:plasma (Direct)): 0.04 | Kp at 30 min ([7]; rat, brain and plasma, iv, 1 mg/kg i.v., 30 m, read-out: RATIO: Brain:plasma (Direct)): 0.06 | Kp at 1 h ([7]; rat, brain and plasma, iv, 1 mg/kg i.v., 1 hr, read-out: RATIO: Brain:plasma (Direct)): 0.07 | Kp at 3 h ([7]; rat, brain and plasma, iv, 1 mg/kg i.v., 3 hr, read-out: RATIO: Brain:plasma (Direct)): 0.1 | Kp ([7]; rat, brain and plasma, iv, 1 mg/kg i.v., avg., read-out: RATIO: Brain:plasma (Direct)): 0.07

Structure (SMILES): Oc1ccc(OC[C@@H](O)CSc2nc3cc(Cl)c(Cl)cc3[nH]2)cc1 [drawing 808]
BBB Pene Classification [6]: High (when Papp A−B≧3.0×10−6 cm/s, and efflux<3.0) | RATIO: Brain:plasma (Direct) ([7]; 3 MPK i.v., 2 hr): BLQ | Kp at 30 min ([7]; rat, brain and plasma, iv, 3 mg/kg, 3 MPK i.v., 30 m, read-out: RATIO: Brain:plasma (Direct)): 0.15 | Kp at 1 h ([7]; rat, brain and plasma, iv, 3 mg/kg, 3 MPK i.v., 1 hr, read-out: RATIO: Brain:plasma (Direct)): 0.35 | Kp ([7]; rat, brain and plasma, iv, 3 mg/kg, 3 MPK i.v., avg, read-out: RATIO: Brain:plasma (Direct)): 0.25

Structure (SMILES): O=c1[nH]c2ccc(OC[C@@H](O)CSc3nc4cc(Cl)c(Cl)cc4[nH]3)cc2o1 [drawing 809]
BBB Pene Classification [6]: Moderate (when Papp A−B≧3.0×10−6 cm/s, and 10>efflux≧3.0) | RATIO: Brain:plasma (Direct) ([7]; 3 MPK i.v., 30 m): BLQ (avg); BLQ (30 m), BLQ (1 hr), | RATIO: Brain:plasma (Direct) ([7]; 3 MPK i.v., 1 hr): BLQ (avg); BLQ (30 m), BLQ (1 hr), | RATIO: Brain:plasma (Direct) ([7]; 3 MPK i.v., avg): BLQ (avg); BLQ (30 m), BLQ (1 hr),

Now from value to compound, other results behind:

IC50 [3]: 0.06 µM | concentration at 30 min ([4]; mice 10 mg/kg i.p.): 0.048 µM | concentration at 30 minute [4, 8]: 0.061 µg/mL | concentration at 30 minute [4, 9]: 0.145 µM | concentration at 30 minute [4, 10]: 0.679 µg/mL
Structure (SMILES): O=C(COc1ccc2[nH]c(=O)oc2c1)N1CCN(c2ccc(Cl)c(Cl)c2)CC1 [NP10068]
Depression Result [2]: active

IC50 [3]: 0.072 µM | concentration at 30 min ([4]; mice 10 mg/kg i.p.): 0.064 µM | concentration at 30 minute [4, 8]: 0.034 µg/mL | concentration at 30 minute [4, 9]: 0.094 µM | concentration at 30 minute [4, 10]: 0.377 µg/mL
Structure (SMILES): O=C1N(C[C@H](O)COc2ccc(O)cc2)CCN1c1ccc(Cl)cc1 [NP10076]
Depression Result [2]: active
